The test system of experiment [1] is WT mouse-derived neural stem cells. It is filed as cell-based.
In experiment [2] the test system is human neural progenitor cells (NHNP). Format: cell-based.

For ω-conotoxin GVIA, the “differentiation after passaging with inhibitor” value was “differentiation into Tuj-1 (class III β-tubulin)-positive nerve cells and GFAP (grail fibrillary acidic protein)-positive astrocytes could be confirmed” in experiment [1]; “many cells differentiate into Tuj-1 (class III β-tubulin)-positive nerve cells and some cells differentiate into GFAP (grail fibrillary acidic protein)-positive astrocytes” in experiment [2].

The values are drawn from US9574176B2 (priority 2012, dated 2017).
